Values of other authors in US5321022A, “Compositions for percutaneous administration” (Kanebo, Ltd., priority 1989, dated 1994).

Conditions: cf: U.S. Pat. No. 4430343

For `CCOCCn1c(N2CCCN(C)CC2)nc2ccccc21` [emedastine, 1-(2-Ethoxyethyl)-2-(hexahydro-4-methyl-1H-1,4-diazepin-1-yl)-1H-benzimidazole], the “antihistaminic activity (in words)” value is given as “strong antihistaminic activity”.
